The target in assay [1] is rat P2X7 (Rattus norvegicus (Rat), UniProt Q64663). Nature of the assay: Rat P2X7 functional assay (Ca2+ influx, Fluo-4, FDSS). Type of assay: cell-based. The settings on record: HEK293 cells stably expressing rat P2X7; BzATP final 10 microM; 7-point dose-response; read-out: Antagonistic activities with respect to the rat P2X7 receptor (IC50). An outline of the steps: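 IC50 derived from 7-point dose-response in duplicate, measuring inhibition of BzATP-evoked (final 10 microM) intracellular Ca2+ increase by Fluo-4 fluorescence on FDSS. Rat P2X7-HEK293 cells were exposed to compound for 10 min in the dark beforehand.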

Assay [2] deals with human P2X7 (Homo sapiens (Human), UniProt Q99572). Nature of the assay: Human P2X7 functional assay (Ca2+ influx, Fluo-4, FDSS). The settings on record: antagonistic activity with respect to the human P2X7 receptor; BzATP final concentration 80 microM. Type of assay: cell-based. An outline of the steps:
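Ca2+ influx was triggered with BzATP (80 μM final) after a 10-min room-temperature compound preincubation and monitored with Fluo-4 (ex 480/em 540 nm) on FDSS. The cells were HEK293 stably carrying FLAG-tagged human P2X7. Duplicate-averaged 7-point dose-responses gave IC50s.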

IC50 data for 12 compounds are collected here from patent US11077100B2, “Tetrahydroquinoline derivatives as P2X7 receptor antagonists” (RaQualia Pharma Inc., priority 2017, dated 2021).

Sequence of human P2X7 (Q99572 whole entry): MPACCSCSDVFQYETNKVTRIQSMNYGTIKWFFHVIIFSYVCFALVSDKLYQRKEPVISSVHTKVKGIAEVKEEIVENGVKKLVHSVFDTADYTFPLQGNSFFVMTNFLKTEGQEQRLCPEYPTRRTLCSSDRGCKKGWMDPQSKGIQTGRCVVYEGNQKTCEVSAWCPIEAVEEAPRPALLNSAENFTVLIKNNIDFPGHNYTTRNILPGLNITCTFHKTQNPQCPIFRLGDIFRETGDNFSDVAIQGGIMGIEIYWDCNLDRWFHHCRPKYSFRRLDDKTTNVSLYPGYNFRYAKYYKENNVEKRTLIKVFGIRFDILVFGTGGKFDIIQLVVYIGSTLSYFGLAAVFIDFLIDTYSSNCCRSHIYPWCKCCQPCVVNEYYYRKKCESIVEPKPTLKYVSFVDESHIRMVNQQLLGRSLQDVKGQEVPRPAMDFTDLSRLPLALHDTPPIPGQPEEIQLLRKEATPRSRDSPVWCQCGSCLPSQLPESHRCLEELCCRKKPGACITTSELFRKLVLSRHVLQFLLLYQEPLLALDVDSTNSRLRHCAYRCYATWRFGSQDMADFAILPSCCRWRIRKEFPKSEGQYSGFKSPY
Sequence of rat P2X7 (Q64663 whole entry): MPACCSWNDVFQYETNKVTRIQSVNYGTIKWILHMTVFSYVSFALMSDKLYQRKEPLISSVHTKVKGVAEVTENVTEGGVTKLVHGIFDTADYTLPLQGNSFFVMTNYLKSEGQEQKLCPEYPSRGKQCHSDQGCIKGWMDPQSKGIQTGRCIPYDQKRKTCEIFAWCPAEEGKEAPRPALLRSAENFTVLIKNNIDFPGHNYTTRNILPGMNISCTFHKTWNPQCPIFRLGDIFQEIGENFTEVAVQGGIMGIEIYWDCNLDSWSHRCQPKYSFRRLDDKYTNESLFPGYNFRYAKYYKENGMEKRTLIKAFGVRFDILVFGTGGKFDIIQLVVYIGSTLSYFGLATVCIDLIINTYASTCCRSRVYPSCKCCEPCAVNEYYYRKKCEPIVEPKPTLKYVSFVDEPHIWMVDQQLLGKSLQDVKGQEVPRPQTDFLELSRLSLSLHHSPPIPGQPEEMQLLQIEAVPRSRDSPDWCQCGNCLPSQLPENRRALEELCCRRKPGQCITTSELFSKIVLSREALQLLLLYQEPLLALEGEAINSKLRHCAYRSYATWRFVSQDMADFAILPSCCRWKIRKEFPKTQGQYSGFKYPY

By IC50 is commonly meant the concentration that gives 50% inhibition. Regarding `C[C@@]1(O)CC[C@@](F)(C(=O)NCc2ccc(F)cc2Cl)c2cccnc21` [Example 260, (5S,8R)-N-(2-chloro-4-fluorobenzyl)-5-fluoro-8-hydroxy-8-methyl-5,6,7,8-tetrahydroquinoline-5-carboxamide], the IC50 in assay [1] was less than 1000 nM; in assay [2], 301 to 1000 nM.

With `O=C(NCc1cccc(C(F)(F)F)c1Cl)C1CC(O)c2ncccc21` (stereo not drawn) [Example 27, N-(2-chloro-3-(trifluoro-methyl)benzyl)-7-hydroxy-6,7-dihydro-5H-cyclopenta[b] pyridine-5-carboxamide], the IC50 in assay [1] is less than 1000 nM; in assay [2], less than 50 nM.

On to `O=C1CCC(F)(C(=O)NCc2cccc(C(F)(F)F)c2Cl)c2cccnc21` (stereo not drawn) [Example 13, N-(2-chloro-3-(trifluoromethyl)benzyl)-5-fluoro-8-oxo-5,6,7,8-tetrahydro-quinoline-5-carboxamide], for which the IC50 in assay [1] was less than 1000 nM; in assay [2], less than 50 nM.

With `Cc1cc(Cl)cc(Cl)c1CNC(=O)C1(F)CCC(O)(CN(C)C)c2ncccc21` (stereo not drawn) [Example 47, N-(2,4-dichloro-6-meth-ylbenzyl)-8-((dimeth-ylamino)meth-yl)-5-fluoro-8-hydroxy-5,6,7,8-tetrahydroquinoline-5-carboxamide], the figures for the IC50 in assay [1] and in assay [2] were less than 1000 nM and less than 50 nM, respectively.

Consider `C[C@]1(O)CC[C@@](F)(C(=O)NCc2c(Cl)cc(Cl)cc2CO)c2cccnc21` [Example 261, (5S,8S)-N-(2,4-dichloro-6-(hydroxymethyl)benzyl)-5-fluoro-8-hydroxy-8-methyl-5,6,7,8-tetrahydroquinoline-5-carboxamide], for which the figures for the IC50 in assay [1] and in assay [2] were less than 1000 nM and less than 50 nM, respectively.

For `CN1CCO[C@]2(CC[C@@](F)(C(=O)NCc3ccc(Cl)cc3Cl)c3cccnc32)C1` [Example 290, (2R,5′S)—N-(2,4-dichlorobenzyl)-5′-fluoro-4-methyl-6′,7′-dihydro-5′H-spiro[morpholine-2,8′-quinoline]-5′-carboxamide], the IC50 was less than 1000 nM in assay [1] and less than 50 nM in assay [2].

Consider `C[C@]1(O)CC[C@@](F)(C(=O)NCc2c(F)cc(Cl)cc2F)c2cccnc21` [Example 269, (5S,8S)-N-(4-chloro-2,6-difluorobenzyl)-5-fluoro-8-hydroxy-8-methyl-5,6,7,8-tetrahydroquinoline-5-carboxamide], for which the results for the IC50 in assay [1] and in assay [2] were less than 1000 nM and less than 50 nM, respectively.

On to `COC[C@]1(O)CC[C@@](F)(C(=O)NCc2ccc(F)cc2Cl)c2cccnc21` (relative stereo) [Example 42, (5S*,8S*)-N-(2-chloro-4-fluoro-benzyl)-5-fluoro-8-hydroxy-8-(methoxymethyl)-5,6,7,8-tetra-hydroquinoline-5-carboxamide], for which the IC50 in assay [1] is less than 1000 nM; in assay [2], less than 50 nM.

As for `O=C1CO[C@@]2(CC[C@@](F)(C(=O)NCc3ccc(Cl)cc3Cl)c3cccnc32)CN1` [Example 294, (2S,5′S)-N-(2,4-dichlorobenzyl)-5′-fluoro-5-oxo-6′,7′-dihydro-5′H-spiro [morpholine-2,8′-quinoline]-5′-carboxamide], the IC50 in assay [1] was less than 1000 nM; in assay [2] it was 50 to 100 nM.

Take `O=C(NCc1c(F)ccc(Cl)c1F)[C@]1(F)CC[C@H](O)c2ncccc21` [Example 193, (5S,8S)-N-(3-chloro-2,6-difluorobenzyl)-5-fluoro-8-hydroxy-5,6,7,8-tetrahydroquinoline-5-carboxamide]: the IC50 in assay [1] is less than 1000 nM; in assay [2] it was less than 50 nM.

As to `Cc1cc(Cl)cc(Cl)c1CNC(=O)C1CC(=O)c2ncccc21` (stereo not drawn) [Example 16, N-(2,4-dichloro-6-methylbenzyl)-7-oxo-6,7-dihydro-5H-cyclopenta[b]pyridine-5-carboxamide], the IC50 was less than 1000 nM in assay [1] and less than 50 nM in assay [2].

As for `O=C(NCc1ccc(Cl)cc1F)[C@]1(F)CC[C@H](OCCO)c2ncccc21` [Example 346, (5S,8S)-N-(4-chloro-2-fluorobenzyl)-5-fluoro-8-(2-hydroxyethoxy)-5,6,7,8-tetrahydroquinoline-5-carboxamide], the IC50 in assay [1] is less than 1000 nM; in assay [2], less than 50 nM.
